Results reported in the NIST ThermoML archive (doi:10.1016/j.jct.2015.09.018).

Details: 101.33 kPa, Crystal 3; for molar entropy: relaxation calorimeter

[O-2].[O-2].[Ti+4] [titanium(IV) oxide]
Details	molar entropy [J/K/mol]
0.5 K	0.000413
1 K	0.000882
1.5 K	0.00146
2 K	0.00221
2.5 K	0.00316
3 K	0.00439
3.5 K	0.00591
4 K	0.00779
4.5 K	0.01
5 K	0.0127
5.5 K	0.0158
6 K	0.0194
6.5 K	0.0234
7 K	0.0279
7.5 K	0.0328
8 K	0.0383
8.5 K	0.0442
9 K	0.0506
9.5 K	0.0575
10 K	0.0649
11 K	0.081
12 K	0.0989
13 K	0.119
14 K	0.141
15 K	0.164
16 K	0.19
17 K	0.218
18 K	0.248
19 K	0.28
20 K	0.314
25 K	0.524
30 K	0.798
35 K	1.14
40 K	1.55
45 K	2.02
50 K	2.55
55 K	3.15
60 K	3.8
65 K	4.5
70 K	5.25
75 K	6.04
80 K	6.87
85 K	7.74
90 K	8.65
95 K	9.59
100 K	10.56
110 K	12.56
120 K	14.64
130 K	16.77
140 K	18.94
150 K	21.13
160 K	23.34
170 K	25.56
180 K	27.77
190 K	29.99
200 K	32.19
210 K	34.38
220 K	36.55
230 K	38.69
240 K	40.82
250 K	42.91
260 K	44.98
270 K	47.03
273.15 K	47.66
280 K	49.04
290 K	51.02
298.15 K	52.61
300 K	52.97
305 K	53.94

Details	mass density [kg/m3]
298.15 K, X-ray diffraction	4130
